# Assay results published in patent publication US7626027B2, “Substituted 1H-pyrrolo[2,3-c]pyridine-2-carboxamides and related analogs as inhibitors of casein kinase Iε” (Aventis Pharmaceuticals Inc, priority 2003, dated 2009).
# Molecular target: T1, casein kinase 1ε (Homo sapiens, UniProt P49674)
# T1 construct: made in house
# Assay: Casein Kinase Epsilon 33P-ATP Filter Plate Assay
# Assay type: biochemical
# Details: not given
# Source text: Casein Kinase Epsilon ^33P-ATP Filter Plate Assay for Screening CK1 Inhibitors Purpose: This assay measures the effect of compounds to inhibit the phosphorylation of the substrate casein by the enzyme casein kinase 1ε using an in vitro ^33P-ATP filtration assay.
# Equipment: • Beckman Biomek 2000 Liquid Handling Robot • Beckman Multimek 96 Automated 96 Channel Pipettor • Millipore Vacuum Manifold Basic Kit # MAVM0960R • Titertek Multidrop Liquid Dispenser • Packard TopCount NXT Liquid Scintillation Counter
# Enzyme: • Casein Kinase 1ε final concentration 0.58 mg/ml obtained from fermentation and purification processes performed by Aventis Pharmaceuticals Inc., France. The above are stored as 100 μL aliquots at minus 80° C.
# Compounds: • Compounds for testing are supplied as frozen 10 mM compound stock dissolved in 100% DMSO. Assay Conditions:
# Final total assay volume per well is equal to 50 μL made up as follows: • 5 μL of diluted compound stock ([…], 0.1, 0.01 or 0.001 μM), • 5 μL of dephosphorylated casein final concentration 0.2 μg/μL, • 20 μL of CK1ε final concentration 3 ng/μL, and • 20 μL of γ-^33P-ATP final concentration 0.02 μCi/μL mixed with cold ATP (10 μM final). Methodology: • 1. 500 mL of fresh assay buffer is made: 50 mM Tris pH 7.5, 10 mM MgCl2, 2 mM DTT and 1 mM EGTA • 2. Compounds to be evaluated are obtained as 10 μL of 10 mM stock dissolved in 100% DMSO. Using a Biomek 2000 liquid handling robot, serial dilutions are made to yield 10, 1, 0.1, 0.01 and 0.001 μM final compound dilutions added as 5 μL additions to Falcon U bottom plates. […] A routine screening assay will consist of 32 compounds, which equals 4 assay plates. • 3. Assay plate maps are set up according to the following pattern
# • 4. […] Finally 20 μL […] (0.02 μCi/μL)/10 μM cold ATP are added (equals approximately 2×10^6 CPM per well). • 6. The Falcon U-Bottom assay plate containing the above 50 μL reaction volume is vortexed and then incubated at room temperature for 2 hours. • 7. At the end of 2 hours, the reaction is stopped by the addition of 65 μL of ice cold 2 mM cold ATP (made up in assay buffer) to the assay plates using a Beckman Multimek • 8. At the same time 25 μL 100% ice cold TCA made up in distilled H2O is added to a matching number of Millipore MAPH filter plates. • 9. Using a handheld 8-channel pipettor, 100 μL of the reaction mixture is transferred from the Falcon U-Bottom Plate to the Millipore MAPH filter plates presoaked with TCA. • 10. The Millipore MAPH filter plates are mixed gently and allowed to sit at room temperature for at least 30 minutes to precipitate the proteins. • 11. After 30 minutes the filter plates are placed on a Millipore vacuum manifold and filtered at no more than 8 mm Hg as the MAPH filters tend to “air lock” at higher vacuum settings. • 12. The filter plates are sequentially washed and filtered with 2×150 μL 20% TCA, 2×150 μL 10% TCA and 2×150 μL 5% TCA (total of 6 washes per plate/900 μL per well). • 13. Plates are allowed to dry overnight at room temperature. The next day 40 μL Packard Microscint-20 Scintillation Fluid is added per well using a Titertek Multidrop dispenser; the plates are sealed and counted for 2 minutes/well in a Packard Topcount NXT Scintillation Counter (CPM values/well are captured). Calculation: • 1. Counts Per Minute (CPM) data is captured and imported into a proprietary data calculation and archiving database (Activity Base by IDBS version 5.0). • 2. Column 1 for each plate reflects total phosphorylation activity of the enzyme in the absence of any inhibiting compound and thus represents 100%. Column 12 reflects any nonspecific phosphorylation/retained radioactivity activity in the absence of inhibiting compound and enzyme.
# T1 sequence (P49674 whole entry): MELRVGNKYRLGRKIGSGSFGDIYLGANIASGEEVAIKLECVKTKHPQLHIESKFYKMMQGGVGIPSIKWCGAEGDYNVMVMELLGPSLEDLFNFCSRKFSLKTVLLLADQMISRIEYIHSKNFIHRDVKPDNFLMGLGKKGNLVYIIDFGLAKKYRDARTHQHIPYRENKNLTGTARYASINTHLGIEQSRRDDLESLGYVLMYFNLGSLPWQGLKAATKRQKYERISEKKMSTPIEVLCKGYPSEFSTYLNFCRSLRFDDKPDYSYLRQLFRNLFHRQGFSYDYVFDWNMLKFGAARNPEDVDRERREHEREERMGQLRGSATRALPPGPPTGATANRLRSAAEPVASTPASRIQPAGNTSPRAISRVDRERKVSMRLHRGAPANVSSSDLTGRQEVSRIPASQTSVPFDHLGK
row,SMILES,IC50 [nM]
1,"NC(=O)c1[nH]c2cccnc2c1Sc1ccncc1 [Ia-27, 3-(Pyridin-4-sulfanyl)-1H-pyrrolo[3,2-b]pyridine-2-carboxylic acid amide]",2980
2,"NC(=O)c1[nH]c2cccnc2c1Sc1ccc([N+](=O)[O-])cc1 [Ia-17, 3-(4-Nitro-phenylsulfanyl)-1H-pyrrolo[3,2-b]pyridine-2-carboxylic acid amide]",9790
3,"NC(=O)c1[nH]c2cccnc2c1Sc1cccc(Cl)c1Cl [Ia-9, 3-(2,3-Dichlorophenylsulfanyl)-1H-pyrrolo[3,2-b]pyridine-2-carboxylic acid amide]",> 10000
4,"COc1ccc2[nH]c(C(N)=O)c(Sc3cccc(F)c3)c2n1 [Ia-35, 3-(3-Fluoro-phenylsulfanyl)-5-methoxy-1H-pyrrolo[3,2-b]pyridine-2-carboxylic acid amide]",896
5,CNC(=O)c1[nH]c2cccnc2c1Sc1cccc(OC(F)(F)F)c1 [Ia-30],> 10000
6,"NC(=O)c1[nH]c2cccnc2c1Sc1cccc(C(F)(F)F)c1 [Ia-11, 3-(3-Trifluoromethyl-phenylsulfanyl)-1H-pyrrolo[3,2-b]pyridine-2-carboxylic acid, amide]",709
7,"NC(=O)c1[nH]c2cccnc2c1Sc1cccs1 [Ia-28, 3-(Thiophen-2-ylsulfanyl)-1H-pyrrolo[3,2-b]pyridine-2-carboxylic acid amide]",53
8,"CCc1ccccc1Sc1c(C(N)=O)[nH]c2cccnc12 [Ia-23, 3-(2-Ethyl-phenylsulfanyl)-1H-pyrrolo[3,2-b]pyridine-2-carboxylic acid amide]",6480
9,"NC(=O)c1[nH]c2cccnc2c1Sc1cccc(N)c1 [Ia-16, 3-(3-Amino-phenylsulfanyl)-1H-pyrrolo[3,2-b]pyridine-2-carboxylic acid amide]",424
10,"Cn1c(C(N)=O)c(Sc2ccccc2)c2ncccc21 [Ia-34, 1-Methyl-3-phenylsulfanyl-1H-pyrrolo[3,2-b]pyridine-2-carboxylic acid amide]",339
11,"CNC(=O)c1[nH]c2cccnc2c1Sc1ccccc1 [Ia-33, 3-Phenylsulfanyl-1H-pyrrolo[3,2-b]pyridine-2-carboxylic acid methylamide]",> 10000
12,"NC(=O)c1[nH]c2cccnc2c1Sc1cc(Cl)ccc1Cl [Ia-13, 3-(2,5-Dichloro-phenylsulfanyl)-1H-pyrrolo[3,2-b]pyridine-2-carboxylic acid amide]",> 10000
13,"Cc1cc(C)cc(Sc2c(C(N)=O)[nH]c3cccnc23)c1 [Ia-21, 3-(3,5-Dimethyl-phenylsulfanyl)-1H-pyrrolo[3,2-b]pyridine-2-carboxylic acid amide]",6880
14,"Cc1ccccc1Sc1c(C(N)=O)[nH]c2cccnc12 [Ia-19, 3-o-Tolylsulfanyl-1H-pyrrolo[3,2-b]pyridine-2-carboxylic acid amide]",140
15,CNC(=O)c1[nH]c2cccnc2c1Sc1cccc(Cl)c1 [Ia-31],> 10000
16,"COc1ccccc1Sc1c(C(N)=O)[nH]c2cccnc12 [Ia-14, 3-(2-Methoxy-phenylsulfanyl)-1H-pyrrolo[3,2-b]pyridine-2-carboxylic acid amide]",669
17,"NC(=O)c1[nH]c2cccnc2c1Sc1cccc(OC(F)(F)F)c1 [Ia-24, 3-(3-Trifluoromethoxy-phenylsulfanyl)-1H-pyrrolo[3,2-b]pyridine-2-carboxylic acid, amide]",219
18,"COc1cccc(Sc2c(C(N)=O)[nH]c3ccc(OC)nc23)c1 [Ia-36, 3-(3-Methoxy-phenylsulfanyl)-5-methoxy-1H-pyrrolo[3,2-b]pyridine-2-carboxylic acid amide]",86
19,"CNC(=O)c1c(Sc2ccccc2)c2ncccc2n1C [Ia-29, 1-Methyl-3-phenylsulfanyl-1H-pyrrolo[3,2-b]pyridine-2-carboxylic acid methylamide]",> 10000
20,"NC(=O)c1[nH]c2cccnc2c1Sc1ccccn1 [Ia-26, 3-(Pyridin-2-sulfanyl)-1H-pyrrolo[3,2-b]pyridine-2-carboxylic acid amide]",190

# Results, then the molecule that gave them:
row,IC50 [nM],SMILES
1,466,NC(=O)c1[nH]c2ccncc2c1Sc1cccc(F)c1 [Ib-2]
2,397,"COc1cccc(Sc2c(C(N)=O)[nH]c3cnccc23)c1 [Ic-4, 3-(3-Methoxy-phenylsulfanyl)-1H-pyrrolo[2,3-c]pyridine-2-carboxylic acid amide]"
3,1130,"NC(=O)c1[nH]c2ccncc2c1Sc1ccccc1 [Ib-1, 3-Phenylsulfanyl-1H-pyrrolo[3,2-c]pyridine-2-carboxylic acid amide]"
4,759,"NC(=O)c1[nH]c2cnccc2c1Sc1ccccc1C(F)(F)F [Ic-6, 3-(2-Trifluoromethyl-phenylsulfanyl)-1H-pyrrolo[2,3-c]pyridine-2-carboxylic acid amide]"
5,1290,"NC(=O)c1[nH]c2cnccc2c1Sc1ccccc1OC(F)(F)F [Ic-7, 3-(2-Trifluoromethoxy-phenylsulfanyl)-1H-pyrrolo[2,3-c]pyridine-2-carboxylic acid amide]"
6,> 10000,"NC(=O)c1[nH]c2cnccc2c1S(=O)(=O)c1ccccc1 [Ic-2, 3-Benzenesulfonyl-1H-pyrrolo[2,3-c]pyridine-2-carboxylic acid amide]"
7,123,"CCCn1c(C(N)=O)c(Sc2ccccc2)c2ncccc21 [Ia-37, 3-Phenylsulfanyl-1-propyl-1H-pyrrolo[3,2-b]pyridine-2-carboxylic acid amide]"
8,442,"COc1ccccc1Sc1c(C(N)=O)[nH]c2cnccc12 [Ic-8, 3-(2-Methoxy-phenylsulfanyl)-1H-pyrrolo[2,3-c]pyridine-2-carboxylic acid amide]"
9,388,"NC(=O)c1[nH]c2cnccc2c1Sc1ccccc1 [Ic-1, 3-Phenylsulfanyl-1H-pyrrolo[2,3-c]pyridine-2-carboxylic acid amide]"
10,375,"NC(=O)c1[nH]c2cnccc2c1Sc1cccc(Cl)c1 [Ic-5, 3-(3-Chloro-phenylsulfanyl)-1H-pyrrolo[2,3-c]pyridine-2-carboxylic acid amide]"
11,1840,"NC(=O)c1[nH]c2cnccc2c1Sc1cccc(F)c1 [Ic-3, 3-(3-Fluoro-phenylsulfanyl)-1H-pyrrolo[2,3-c]pyridine-2-carboxylic acid amide]"
12,291,"NC(=O)c1[nH]c2cnccc2c1Sc1ccccn1 [Ic-9, 3-(Pyridin-2-sulfanyl)-1H-pyrrolo[2,3-c]pyridine-2-carboxylic acid amide]"
13,7960,NC(=O)c1[nH]c2ccncc2c1Sc1ccc(Cl)cc1 [Ib-3]

# Same assay, conditions: phosphorylation of casein, 10 μM cold ATP, 2 hours room temperature; * denotes average of 2 or more determinations; read-out: Casein Kinase Iε 33P-ATP Filter Plate Assay IC50
row,SMILES,IC50 [nM]
1,CNC(=O)c1[nH]c2cccnc2c1Sc1cccc(F)c1 [Ia-32],> 10000
